Experimental data published in patent US4418068A, “Antiestrogenic and antiandrugenic benzothiophenes” (Eli Lilly and Company, priority 1981, dated 1983).

Columns and labels:
estrogenic response [1] = settings: Black and Goode 1980; cited from earlier work
[2] = tested on: androgen-stimulated prostate growth; test: Anti-Androgen Test, adult castrated male rats (ventral prostate weight); assay type: in vivo; settings: Experiment A; androgen only, testosterone propionate 0.1 mg./day s.c., 7 days, castrated
Procedure: The antiandrogenic property of the compounds was evaluated in the following tests, in which the compound of Example 3 was used again.
(§1) The animals used in this test were adult male rats having a body weight which averaged about 330 g. when the experiment ended. All of the animals to be used in the experiment were castrated by the scrotal route, and were held untreated for 3 days. On the fourth day, subcutaneous administration of 0.1 mg./day of an exogenous androgen, testosterone propionate, was begun, and was continued for seven consecutive days. An untreated control group of animals received injections of 0.1 ml./day of corn oil as a blank treatment. The compound of this invention was administered orally or subcutaneously to the treated animals in 0.1 ml. of corn oil, at the same time that the androgen was administered. The animals were sacrificed 24 hours after the last injection of testosterone propionate, the ventral prostate glands were removed and weighed, and the mean of the weights of each treatment group was reported. The table below reports the mean weights resulting from administration of various doses of the compound along with androgen.
Each treatment group of animals in this experiment consisted of seven to nine animals, except for the untreated control group, which contained twelve animals.

[3] = tested on: androgen-stimulated prostate growth; test: Anti-Androgen Test, immature male rats (ventral prostate weight); assay type: in vivo; settings: androgen only 20 mcg./day s.c.
Procedure: as §1, with “reported.” for “reported. The table below reports the mean weights resulting from administration of various doses of the compound along with androgen.”
This experiment was carried out in the same manner as Experiment A above, except that the test animals were immature male rats, weighing about 120 g. each at sacrifice. Each treatment group consisted of six or seven animals. All treatments in this experiment were administered by subcutaneous injection. The amount of the androgen administered was only 20 mcg./day because of the small size of the animals.
This experiment was also conducted in immature rats having average body weight of about 115 g. when the experiment ended. In other respects, the experiment was as described under Experiment B above. The treatment groups consisted of ten animals each, except for the androgen only group, of 16 animals, and the 5 mg./kg. group, of nine animals.

estrogenic response [4] = test: Regression Test: reversal of established estrogenic response (uterine weight); assay type: in vivo, immature rats; settings: estradiol alone 0.1 mcg./day s.c.
Procedure: The following test was carried out to determine if the compounds of this invention could reverse an estrogenic response, when administration of the compound was started after the estrogenic response had become established.
The test animals were immature rats, and all administrations were by subcutaneous injection.
The mean uterine weights of these groups of animals, respectively, were 97.9, 97.3, 119.9 and 112.3 mg.
The animals were sacrificed on the fifth day and their mean uterine weight was 56.4 mg.
The animals were sacrificed on the seventh day and their mean uterine weight was 57.0 mg.

estrogenic response [5] = test: Estrogenic Response Test, mature ovariectomized mice (uterine weight); assay type: in vivo, adult ovariectomized mice; settings: Experiment E, s.c.
Procedure: (§2) The first test reported below is used to determine the estrogenic potency of compounds. It is well known that many compounds having antiestrogenic activity also, typically, have estrogenic activity. As has been explained, estrogenic activity is a liability in an antiestrogen, and thus it is important to identify antiestrogens having a minimum amount of estrogenic activity. This test was conducted with immature 40-45 g. female rats, immature 11-13 g. mice, and adult ovariectomized mice. The rats were tested in groups of six, and mice in groups of ten. All of the laboratory animals were from standardized strains and were equilibrated to the laboratory before the test started. Each test was begun by administering the test compound daily for three days, as a subcutaneous injection or by oral gavage, as indicated below in the reports of individual experiments. Untreated control animals were included in each experiment, along with animals to which estradiol was administered subcutaneously. The estradiol-treated animals provided positive controls, showing the physiological effect of a potent estrogen on the individual group of animals used in the experiment. […] The test animals were treated for three days and sacrificed on the fourth day, and the uteri were removed, freed of extraneous tissue, and blotted with paper towels. The uteri were weighed to the nearest 0.1 mg. The tables below report the results of representative experiments. The doses of estradiol and of the compound of this invention are given as the total of the three daily doses. The uterine weights are given, in mg., as the means of all of the organ weights of the animals in a group. Compounds are referred to by their example numbers above.

[6] = tested on: estrogenic response of estradiol; test: Antiestrogenic Test, immature mice (uterine weight); assay type: in vivo; settings: Experiment B; estradiol alone 0.3 mcg., s.c.
Procedure: (§3) This test was conducted with immature 40-45 g. female rats, immature 11-13 g. mice, and adult ovariectomized mice. The rats were tested in groups of six, and mice in groups of ten. All of the laboratory animals were from standardized strains and were equilibrated to the laboratory before the test started. Each test was begun by administering the test compound daily for three days, as a subcutaneous injection or by oral gavage, as indicated below in the reports of individual experiments.
(§4) The test animals were treated for three days and sacrificed on the fourth day, and the uteri were removed, freed of extraneous tissue, and blotted with paper towels. The uteri were weighed to the nearest 0.1 mg.
(§5) The uterine weights are given, in mg., as the means of all of the organ weights of the animals in a group. Compounds are referred to by their example numbers above.
(§6) The same standardized types of laboratory animals which were used in the experiments described above were also used in these experiments. […] Untreated control animals were used in each experiment. […] The dosage and sacrifice schedule, and the method of determining uterine weights and reporting data, were the same as the methods described above under Test 1.

estrogenic response [7] = test: Estrogenic Response Test, immature rats (uterine weight); assay type: in vivo, immature 40-45 g. female rats; settings: s.c.
Procedure: as §2

estrogenic response [8] = test: Estrogenic Response Test, immature mice (uterine weight); assay type: in vivo, immature 11-13 g. mice; settings: Experiment D, s.c.
Procedure: as §2

[9] = tested on: estrogenic response of estradiol; test: Antiestrogenic Test, mature ovariectomized mice (uterine weight); assay type: in vivo, adult ovariectomized mice; settings: Experiment A; estradiol alone 0.3 mcg., s.c.
Procedure: as §3, §4, §5, §6

[10] = Stability of the product on observation after several days; assay type: physicochemical
[11] = tested on: estrogenic response of estradiol; test: Antiestrogenic Test, immature rats (uterine weight); assay type: in vivo; settings: Experiment I, 3 mg., s.c. + estradiol 0.3 mcg.
Procedure: as §3, §4, §5, §6

[12] = tested on: DMBA-induced mammary tumors; test: Tests Against DMBA-Induced mammary tumors; assay type: in vivo, adult female virgin rats; settings: Experiment D
Description: Mammary tumors were induced in adult female virgin rats by a single 20-mg. oral dose of 7,12-dimethylbenzanthracene. Within about six weeks, visible and palpable tumors were present in the mammary tissue of the rats, and the rats were allocated into treatment and control groups in such a way that each group contained animals having approximately the same size and number of tumors. The size of the tumors was estimated by measuring their cross-sectional area. […]
[…] The treated animals received 1 mg./kg. per day of 6-methoxy-2-(4-hydroxyphenyl)-3-[4-(2-piperidinoethoxy)benzoyl]benzo[b]thiophene, hydrochloride, as a subcutaneous injection in corn oil. The animals were not ovariectomized at the end of the experiment.

uterine epithelial cells = settings: known side-effect of earlier anti-estrogens; cited from earlier work
[13] = 1 mg./kg. per day s.c., fifth week

O=C(c1ccc(OCCN2CCCC2)cc1)c1c(-c2ccc(O)cc2)sc2cc(O)ccc12 [6-hydroxy-2-(4-hydroxyphenyl)-3-[4-(2-pyrrolidinoethoxy)benzoyl]benzo[b]thiophene]
antiestrogenic effectiveness vs tamoxifen or trioxifene (estrogenic response [1]): considerably more effective as an antiestrogen | estrogenicity vs tamoxifen or trioxifene (estrogenic response [1]): considerably less estrogenic

CCC(=O)O[C@H]1CC[C@H]2[C@@H]3CCC4=CC(=O)CC[C@]4(C)[C@H]3CC[C@]12C [Androgen, testosterone propionate, reference compound]
Mean Prostate Weight [2]: 309 mg | Mean Prostate Weight ([3]; Experiment B): 48.7 mg | Mean Prostate Weight ([3]; Experiment C): 43.5 mg

C[C@]12CC[C@@H]3c4ccc(O)cc4CC[C@H]3[C@@H]1CC[C@@H]2O [Estradiol, reference compound]
mean uterine weight (estrogenic response [4]; eight days): 112.3 mg | mean uterine weight (estrogenic response [4]; four days): 97.3 mg | mean uterine weight (estrogenic response [4]; six days): 119.9 mg | mean uterine weight (estrogenic response [4]; three days): 97.9 mg | Uterine weight (estrogenic response [5]; total dose 0.03 mcg.): 25.8 mg | Uterine weight (estrogenic response [5]; total dose 0.1 mcg.): 44.2 mg | Uterine weight (estrogenic response [5]; total dose 0.3 mcg.): 65.9 mg | Uterine weight [6]: 50.3 mg | Uterine weight (estrogenic response [7]; Experiment A, total dose 0.3 mcg.): 74.6 mg | Uterine weight (estrogenic response [7]; Experiment B, total dose 0.3 mcg.): 56.8 mg | Uterine weight (estrogenic response [7]; Experiment C, total dose 0.3 mcg.): 63.1 mg | Uterine weight (estrogenic response [8]; total dose 0.03 mcg.): 33.3 mg | Uterine weight (estrogenic response [8]; total dose 0.09 mcg.): 48.2 mg | Uterine weight (estrogenic response [8]; total dose 0.3 mcg.): 50.3 mg | Uterine weight [9]: 65.9 mg

O=C(O)C(F)(F)F.O=C(c1ccc(OCCN2CCCCC2)cc1)c1c(-c2ccc(OC(=O)C(F)(F)F)cc2)sc2cc(OC(=O)C(F)(F)F)ccc12 [Example 9, 6-trifluoroacetoxy-2-(4-trifluoroacetoxyphenyl)-3-[4-(2-piperidinoethoxy)benzoyl]benzo[b]thiophene, trifluoroacetate]
hydrolysis of ester groups [10]: some hydrolysis of one or both ester groups had occurred | Uterine weight [11]: 38.1 mg | Uterine weight (estrogenic response [7]; Experiment C, total dose 3 mg.): 31.3 mg

CC(=O)Oc1ccc(-c2sc3cc(OC(C)=O)ccc3c2C(=O)c2ccc(OCCN3CCCCC3)cc2)cc1 [Example 10, 6-acetoxy-2-(4-acetoxyphenyl)-3-[4-(2-piperidinoethoxy)benzoyl]benzo[b]thiophene]
Uterine weight [11]: 32.2 mg | Uterine weight (estrogenic response [7]; Experiment C, total dose 3 mg.): 30.8 mg

CCCCCCCCCCCC(=O)Oc1ccc(-c2sc3cc(OC(=O)CCCCCCCCCCC)ccc3c2C(=O)c2ccc(OCCN3CCCCC3)cc2)cc1 [Example 11, 6-dodecanoyloxy-2-(4-dodecanoyloxyphenyl)3-[4-(2-piperidinoethoxy)benzoyl]benzo[b]thiophene]
Uterine weight [11]: 40.0 mg | Uterine weight (estrogenic response [7]; Experiment C, total dose 3 mg.): 37.1 mg

CCOC(=O)Oc1ccc(-c2sc3cc(OC(=O)OCC)ccc3c2C(=O)c2ccc(OCCN3CCCCC3)cc2)cc1 [Example 12, 6-ethoxycarbonyloxy-2-(4-ethoxycarbonyloxyphenyl)-3-[4-(2-piperidinoethoxy)benzoyl]benzo[b]thiophene]
Uterine weight [11]: 31.8 mg | Uterine weight (estrogenic response [7]; Experiment C, total dose 3 mg.): 35.8 mg

Cl.O=C(Oc1ccc(-c2sc3cc(OC(=O)c4ccccc4)ccc3c2C(=O)c2ccc(OCCN3CCCCC3)cc2)cc1)c1ccccc1 [Example 13, 6-benzoyloxy-2-(4-benzoyloxyphenyl)-3-[4-(2-piperidinoethoxy)benzoyl]benzo[b]thiophene, hydrochloride]
Uterine weight [11]: 41.1 mg | Uterine weight (estrogenic response [7]; Experiment C, total dose 3 mg.): 39.6 mg

COc1ccc(-c2sc3cc(OC)ccc3c2C(=O)c2ccc(OCCN3CCCCC3)cc2)cc1.Cl [Example 14, 6-methoxy-2-(4-methoxyphenyl)-3-[4-(2-piperidinoethoxy)benzoyl]benzo[b]thiophene, hydrochloride]
Uterine weight [11]: 37.5 mg | Uterine weight (estrogenic response [7]; Experiment C, total dose 3 mg.): 35.1 mg

COc1ccc2c(C(=O)c3ccc(OCCN4CCCCC4)cc3)c(-c3ccc(O)cc3)sc2c1.Cl [Example 19, 6-Methoxy-2-(4-hydroxyphenyl)-3-[4-(2-piperidinoethoxy)benzoyl]benzo[b]thiophene, hydrochloride]
animals with completely regressed tumors ([12]; 1 mg./kg. per day s.c. in corn oil, fourth week): three of the eight treated animals had completely regressed | completely regressed animals [12, 13]: three completely regressed animals | tumor area, upper end of range (single tumor) [12, 13]: ≤ 1974 sq. mm. | average tumor area, other seven treated animals ([12]; 1 mg./kg. per day s.c., fifth week, animal with burst tumors excluded): 398 square millimeters | tumor area of one animal (largest) ([12]; 1 mg./kg. per day s.c., four weeks): 3764 sq. mm. | average tumor area of the other seven animals ([12]; 1 mg./kg. per day s.c., four weeks, animal with 3764 sq. mm. ignored): 254 sq. mm. | average total tumor area of the treated group ([12]; 1 mg./kg. per day s.c., four weeks, eight animals): 692 square millimeters

CC/C(=C(\c1ccccc1)c1ccc(OCCN(C)C)cc1)c1ccccc1 [Tamoxifen, 1-(4-β-dimethylaminoethoxyphenyl)-1,2-diphenylbut-1-ene]
effect on uterine epithelial cells (uterine epithelial cells): causes abnormal growth of uterine epithelial cells
